ChEMBL document CHEMBL2176945, “Novel TEMPO-PEG-RGDs conjugates remediate tissue damage induced by acute limb ischemia/reperfusion” (2012)
Active and inactive are the calls of the source. The calls are words filed in the database; no cut-off is given here. Residues, ends and D or L forms follow the SMILES beside them. *: point of attachment. X1 = CC1(C)CC(C(=O)*)CC(C)(C)N1[O]

How the values were obtained:
Rattus norvegicus [1] = assay: Antithrombotic activity in Wistar rat model assessed as reduction of dry thrombus weight at 5 umol/kg after 15 mins; format: functional, organism-based
Platelet [2] = assay: Antiplatelet activity against ADP-induced platelet aggregation in rabbit plasma at 100 nM for 120 mins by aggregometeric analysis; format: functional; settings: Oryctolagus cuniculus
Platelet [3] = assay: Antiplatelet activity against PAF-induced platelet aggregation in rabbit plasma at 100 nM for 120 mins by aggregometeric analysis; format: functional; settings: Oryctolagus cuniculus
Aorta = assay: Antioxidant activity in rat thoracic aortic strips assessed as free radical scavenging activity by measuring reversal of acetylcholine-induced relaxation; format: functional, tissue-based
Rattus norvegicus [4] = assay: Antithrombotic activity in Wistar rat model assessed as reduction of wet thrombus weight at 5 umol/kg after 15 mins; format: functional
Rattus norvegicus [5] = assay: Antiischemic activity against Wistar rat ischemic-reperfusion model assessed as wet/dry edema tissue ratio at 20 mg/kg, ip administered 15 minutes prior to induction of ischemia followed by administered 1 hr post reperfusion; format: functional
Rattus norvegicus [6] = assay: Antiischemic activity against Wistar rat ischemic-reperfusion model assessed decrease in lipid peroxidation at 20 mg/kg, ip administered 15 minutes prior to induction of ischemia followed by administered 1 hr post reperfusion; format: functional, organism-based; set-up: dose 20 mg/kg
Rattus norvegicus [7] = assay: (§1) Antiischemic activity in Wistar rat myocardia assessed as protection against ischemic-reperfusion-induced tightly woven network of collagen and mild edema at 20 mg/kg, ip administered 15 minutes prior to induction of ischemia followed by administered 1 hr post reperfusion by using hematoxylin-eosin stain by Light microscopy analysis; format: functional, organism-based; set-up: dose 20 mg/kg
Rattus norvegicus [8] = assay: as §1, with “skeleton muscle” for “myocardia”, “ragged red fibrils formation” for “tightly woven network of collagen and mild edema”, “modified NADH” for “hematoxylin-eosin”; format: functional, organism-based; set-up: dose 20 mg/kg; settings: Muscle tissue
Rattus norvegicus [9] = assay: Antiischemic activity against Wistar rat ischemic-reperfusion model assessed decrease in MDA level in plasma at 20 mg/kg, ip administered 15 minutes prior to induction of ischemia followed by administered 1 hr post reperfusion; format: functional, organism-based; set-up: dose 20 mg/kg
Rattus norvegicus [10] = assay: as §1, with “skeleton muscle” for “myocardia”, “cell necrosis” for “tightly woven network of collagen and mild edema”, “staining” for “stain”, “light” for “Light”; format: functional, organism-based; set-up: dose 20 mg/kg; settings: Muscle tissue
Rattus norvegicus [11] = assay: (§2) Antiischemic activity in Wistar rat skeleton muscle assessed as protection against ischemic-reperfusion-induced necrotic and swollen cells at 20 mg/kg, ip administered 15 minutes prior to induction of ischemia followed by administered 1 hr post reperfusion by using Gomori trichrome staining by light microscopy analysis; format: functional, organism-based; set-up: dose 20 mg/kg; settings: Muscle tissue
Rattus norvegicus [12] = assay: as §2, with “membrane ruptures with dissolution of myofibrils” for “necrotic and swollen cells”; format: functional, organism-based; set-up: dose 20 mg/kg; settings: Muscle tissue
Rattus norvegicus [13] = assay: Antiischemic activity against Wistar rat ischemic-reperfusion model assessed decrease in SOD level in plasma at 20 mg/kg, ip administered 15 minutes prior to induction of ischemia followed by administered 1 hr post reperfusion; format: functional, organism-based; set-up: dose 20 mg/kg
Rattus norvegicus [14] = assay: as §1, with “relaxed” for “tightly woven network of”, “fibre sourrounding indivisual myocardial tract” for “and mild edema”, “modified gomori trichome” for “hematoxylin-eosin”, “light” for “Light”; format: functional, organism-based; set-up: dose 20 mg/kg
Rattus norvegicus [15] = assay: as §1, with “pyknotic nuclei” for “tightly woven network of collagen and mild edema”, “light” for “Light”; format: functional, organism-based; set-up: dose 20 mg/kg
Rattus norvegicus [16] = assay: as §2, with “neutrophil accumulation” for “necrotic and swollen cells”, “hematoxylin-eosin” for “Gomori trichrome”; format: functional, organism-based; set-up: dose 20 mg/kg; settings: Muscle tissue
Rattus norvegicus [17] = assay: as §2, with “irregular distribution of oxidative metabolism enzyme” for “necrotic and swollen cells”, “NADH” for “Gomori trichrome”; format: functional, organism-based; set-up: dose 20 mg/kg; settings: Muscle tissue
Rattus norvegicus [18] = assay: as §2, with “interstitial edema” for “necrotic and swollen cells”; format: functional, organism-based; set-up: dose 20 mg/kg; settings: Muscle tissue
Rattus norvegicus [19] = assay: as §1, with “edema between fibre” for “edema”, “modified gomori trichome staining” for “hematoxylin-eosin stain”, “light” for “Light”; format: functional, organism-based; set-up: dose 20 mg/kg
Rattus norvegicus [20] = assay: as §1, with “edema between wavy muscle fibre” for “tightly woven network of collagen”, “surrounding blood vessels” for “mild edema”, “light” for “Light”; format: functional, organism-based; set-up: dose 20 mg/kg
Rattus norvegicus [21] = assay: as §1, with “contraction band” for “tightly woven network of collagen and mild edema”, “light” for “Light”; format: functional, organism-based; set-up: dose 20 mg/kg
Rattus norvegicus [22] = assay: as §2, with “muscle edema” for “necrotic and swollen cells”, “hematoxylin-eosin” for “Gomori trichrome”; format: functional, organism-based; set-up: dose 20 mg/kg; settings: Muscle tissue
Rattus norvegicus [23] = assay: as §1, with “edema between fibre” for “edema”, “modified NADH” for “hematoxylin-eosin”, “light” for “Light”; format: functional, organism-based; set-up: dose 20 mg/kg

CC1(C)CC(C(=O)N[C@@H](CCCNC(=N)N)C(=O)NCC(=O)N[C@@H](CC(=O)O)C(=O)N[C@@H](Cc2ccccc2)C(=O)O)CC(C)(C)N1[O] (X1-RGDF-OH)
Activity (Rattus norvegicus [1]): 22.3 mg
Activity (Platelet [2]): Active
Activity (Platelet [3]): Active
Activity (Aorta): Active

CC1(C)CC(C(=O)NCCOCCOCCOCCOCCOCCOCCOCCNC(=O)COCC(=O)N[C@@H](CCCNC(=N)N)C(=O)NCC(=O)N[C@@H](CC(=O)O)C(=O)N[C@@H](CO)C(=O)O)CC(C)(C)N1[O]
Wet thrombus weight (Rattus norvegicus [4]): 23.6 mg
Activity (Platelet [2]): Active
Activity (Platelet [3]): Active
Activity (Aorta): Active

CC1(C)CC(C(=O)N[C@@H](CCCNC(=N)N)C(=O)NCC(=O)N[C@@H](CC(=O)O)C(=O)N[C@@H](CO)C(=O)O)CC(C)(C)N1[O] (X1-RGDS-OH)
Activity (Rattus norvegicus [1]): 25.9 mg
Activity (Platelet [2]): Active
Activity (Platelet [3]): Active
Activity (Aorta): Active

CC(C)[C@H](NC(=O)[C@H](CC(=O)O)NC(=O)CNC(=O)[C@H](CCCNC(=N)N)NC(=O)C1CC(C)(C)N([O])C(C)(C)C1)C(=O)O (X1-RGDV-OH)
Activity (Rattus norvegicus [1]): 25.1 mg
Activity (Platelet [2]): Active
Activity (Platelet [3]): Active
Activity (Aorta): Active

CC(=O)Oc1ccccc1C(=O)O [ASPIRIN]
Activity (Rattus norvegicus [4]): 27.6 mg

CC1(C)CC(O)CC(C)(C)N1[O] [TEMPOL]
Ratio (Rattus norvegicus [5]; route intraperitoneal): 4.49
Activity (Aorta): Active

CC(C)[C@H](NC(=O)[C@H](CC(=O)O)NC(=O)CNC(=O)[C@H](CCCNC(=N)N)NC(=O)COCC(=O)NCCOCCOCCOCCOCCOCCOCCOCCNC(=O)C1CC(C)(C)N([O])C(C)(C)C1)C(=O)O
Wet thrombus weight (Rattus norvegicus [4]): 24.7 mg
Activity (Platelet [2]): Active
Activity (Platelet [3]): Active
Activity (Aorta): Active

CC1(C)CC(C(=O)NCCOCCOCCOCCOCCOCCOCCOCCNC(=O)COCC(=O)N[C@@H](CCCNC(=N)N)C(=O)NCC(=O)N[C@@H](CC(=O)O)C(=O)N[C@@H](Cc2ccccc2)C(=O)O)CC(C)(C)N1[O]
Activity (Rattus norvegicus [6]): Active
Activity (Rattus norvegicus [7]): Active
Activity (Rattus norvegicus [8]): Active
Activity (Rattus norvegicus [9]): Active
Ratio (Rattus norvegicus [5]): 3.45
Activity (Rattus norvegicus [10]): Active
Activity (Rattus norvegicus [11]): Active
Activity (Rattus norvegicus [12]): Active
Activity (Rattus norvegicus [13]): Active
Wet thrombus weight (Rattus norvegicus [4]): 20.7 mg
Activity (Rattus norvegicus [14]): Active
Activity (Rattus norvegicus [15]): Active
Activity (Rattus norvegicus [16]): Active
Activity (Rattus norvegicus [17]): Active
Activity (Rattus norvegicus [18]): Active
Activity (Rattus norvegicus [19]): Active
Activity (Rattus norvegicus [20]): Active
Activity (Platelet [2]): Active
Activity (Platelet [3]): Active
Activity (Rattus norvegicus [21]): Active
Activity (Aorta): Active
Activity (Rattus norvegicus [22]): Active
Activity (Rattus norvegicus [23]): Active
